Laboratory results published in patent US10034836B2, “Formulations of guanylate cyclase C agonists and methods of use” (SYNERGY PHARMACEUTICALS, INC., priority 2008, dated 2018).
Where a SMILES comes first, the peptide text is derived from it. Bridges are numbered along the chain shown (N, C = ends).

Legend:
[1] = format: in vitro ADME
Procedure: FIG. 1B: Schematic representation of HPLC chromatographic analyses of SP-304 samples after incubation with SGF for 0 and 120 min, respectively. The arrows show the elution position of SP-304.
The stability of SP-304 in the presence of simulated gastric fluid (SGF) was determined by biological activity measurements and HPLC analyses (FIGS. 1A & 1B). SP-304 (final concentration of 8.5 mg/ml) was incubated in SGF (Proteose peptone (8.3 g/liter; Difco), D-Glucose (3.5 g/liter; Sigma), NaCl (2.05 g/liter; Sigma), KH2PO4 (0.6 g/liter; Sigma), CaCl2 (0.11 g/liter), KCl (0.37 g/liter; Sigma), Porcine bile (final 1× concentration 0.05 g/liter; Sigma) in PBS, Lysozyme (final 1× concentration 0.10 g/liter; Sigma) in PBS, Pepsin (final 1× concentration 0.0133 g/liter; Sigma) in PBS). SGF was made on the day of the experiment and the pH was adjusted to 2.0±0.1 using HCl or NaOH as necessary. After the pH adjustment, SGF is filter sterilized with 0.22 μm membrane filters. SP-304 (final concentration of 8.5 mg/ml) was incubated in SGF at 37° C. for 0, 15, 30, […] and 120 min, respectively, in triplicate aliquots. Following incubations, samples were snap frozen in dry ice then stored in a −80° C. freezer until assayed in duplicate.
Here, aliquots of the two samples were analyzed by HPLC using a previously developed method for analyzing SP-304 peptide. […]

[2] = Stability in simulated intestinal fluid (SIF), biological activity by cGMP synthesis in T84 cells; format: in vitro ADME
Procedure: FIG. 2A: Biological activity of SP-304 incubated for varying lengths of time in simulated intestinal fluid (SIF). SP-304 samples were incubated for 0, 30, 60, 90, 150, and 300 min, respectively, and then tested for their ability to stimulate cGMP synthesis in T84 cells. The cGMP stimulation activity in the sample at 0 min of incubation time in SIF was taken as 100% biological activity. The activities of the other SP-304 incubation samples were calculated as the percentage of activity relative to that of the 0 min sample. Data points shown are the average of triplicate measurements±SD.
(§1) FIG. 7A: Biological activity of SP-333 incubated for varying lengths of time in simulated intestinal fluid (SIF). SP-333 samples incubated for 0, 5, 10, 30, 60, and 120 min, respectively, were tested for their ability to stimulate cGMP synthesis in T84 cells. The control sample marked as C120 was produced by incubating SP-333 with heat inactivated SIF for 120 min. Samples from the incubations were removed and heated at 95° C. for 5 min to inactivate digestive enzymes and then used to stimulate cyclic GMP synthesis in T84 cells. The cGMP stimulation activity in the sample at 0 min of incubation time in SIF was taken as 100% biological activity. The activities of the other SP-304 incubation samples were calculated as the percentage of activity relative to that of the 0 min sample. Data points shown are the average of triplicate measurements±SD.
as §1, with “FIG. 7B:” for “FIG. 7A:”, “of SP-332” for “of SP-333”, “incubating SP-332” for “incubating SP-333”
FIG. 7C: Biological activity of SP-304 incubated for varying lengths of time in simulated intestinal fluid (SIF). SP-304 samples incubated for 0, 10, and 60 min, respectively, were tested for their ability to stimulate cGMP synthesis in T84 cells. The control samples marked as C0 and C60 were produced by incubating SP-304 with heat inactivated SIF for 0 and 60 min, respectively. Samples from the incubations were removed and heated at 95° C. for 5 min to inactivate digestive enzymes and then used to stimulate cyclic GMP synthesis in T84 cells. The cGMP stimulation activity in the sample at 0 min of incubation time in SIF was taken as 100% biological activity. The activities of the other SP-304 incubation samples were calculated as the percentage of activity relative to that of the 0 min sample. […]
FIGS. 7G-1-7G-5: Incubation of SP-333 with SIF for 2, 6, 12 and 24 hrs. Effect of SIF digestion on the activity of SP-333 in T84 stimulation assay was determined (FIG. 7G-1) and samples were also analyzed by HPLC (FIGS. 7G2-5). […]
The stability of SP-304 was also evaluated after incubation with simulated intestinal fluid (SIF) by measuring its biological activity and by HPLC analyses (FIGS. 2A & 2B). […]

[3] = system: cynomolgus monkeys; assay: Repeated oral dose toxicity study of SP-304 in cynomolgus monkeys (14 days); format: in vivo
Procedure: The primary purpose of this experiment was to evaluate the toxicity and pharmacokinetics of a repeated oral dose of SP-304 in cynomolgus monkeys. […] Monkeys returned to normal stool consistency within 24-48 hours following the last dose of SP-304.

[4] = system: healthy male and female subjects; assay: Phase 1 single ascending oral dose study, safety and tolerability; conditions: healthy volunteers

## CC(C)C[C@H](NC(=O)[C@@H]1CSSC[C@@H]2NC(=O)[C@H](CC(C)C)NC(=O)[C@H](CCC(=O)O)NC(=O)[C@@H](NC(=O)[C@H](CCC(=O)O)NC(=O)[C@H](CC(=O)O)NC(=O)[C@@H](N)CC(N)=O)CSSC[C@H](NC(=O)[C@H](C)NC(=O)[C@H](C(C)C)NC(=O)[C@H](CC(N)=O)NC(=O)[C@H](C(C)C)NC2=O)C(=O)N[C@@H]([C@@H](C)O)C(=O)NCC(=O)N1)C(=O)O [SP-304, Asn^1-Asp^2-Glu^3-Cys^4-Glu^5-Leu^6-Cys^7-Val^8-Asn^9-Val^10-Ala^11-Cys^12-Thr^13-Gly^14-Cys^15-Leu^16] (H-NDECELCVNVACTGCL-OH; disulfide 4-12, 7-15)
[1]
  major HPLC peak following incubation with SGF: did not change
[2]
  loss of potency following digestion with SIF: about 30%
  reduction in biological activity after incubation in SIF: 30%
[2]; pH 6
  reduction of biological activity following incubation in SIF: about 30%
[3]; cynomolgus monkey, in vivo
  time to return to normal stool consistency following the last dose: 24 to 48 h
[3]; daily dose of 250 mg for 14 consecutive days, cynomolgus monkeys
  tolerability of repeated oral dose: well tolerated
[4]; 0.1 to 48.6 mg single oral dose
  severe adverse events (SAEs): no severe adverse events
[4]; 0.1 to 48.6 mg
  tolerability of single oral dose: well-tolerated
